Measurements as given in PubChem BioAssay (NCI).
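Compound exposure: 48 hours, 5 concentrations, 96-well plates. At the TGI there is no net growth.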

Tests used:
Assay in all cases: growth of human tumour cells (NCI), 48 h
786-0 renal = test system: 786-0 renal
A498 renal = test system: A498 renal
A549 NSCLC = test system: A549 NSCLC
ACHN renal = test system: ACHN renal
BT-549 breast = test system: BT-549 breast
CAKI-1 renal = test system: CAKI-1 renal
CCRF-CEM leukemia = test system: CCRF-CEM leukemia
COLO 205 colon = test system: COLO 205 colon
DU-145 prostate = test system: DU-145 prostate
EKVX NSCLC = test system: EKVX NSCLC
HCC-2998 colon = test system: HCC-2998 colon
HCT-116 colon = test system: HCT-116 colon
HCT-15 colon = test system: HCT-15 colon
HL-60(TB) leukemia = test system: HL-60(TB) leukemia
HOP-62 NSCLC = test system: HOP-62 NSCLC
HOP-92 NSCLC = test system: HOP-92 NSCLC
HS 578T breast = test system: HS 578T breast
HT29 colon = test system: HT29 colon
IGROV1 ovarian = test system: IGROV1 ovarian
K-562 leukemia = test system: K-562 leukemia
KM12 colon = test system: KM12 colon
LOX IMVI melanoma = test system: LOX IMVI melanoma
M14 melanoma = test system: M14 melanoma
MALME-3M melanoma = test system: MALME-3M melanoma
MCF7 breast = test system: MCF7 breast
MDA-MB-231 breast = test system: MDA-MB-231 breast
MDA-MB-435 = test system: MDA-MB-435
MDA-N = test system: MDA-N
MOLT-4 leukemia = test system: MOLT-4 leukemia
NCI-H226 lung = test system: NCI-H226 lung
NCI-H23 lung = test system: NCI-H23 lung
NCI-H460 lung = test system: NCI-H460 lung
NCI-H522 lung = test system: NCI-H522 lung
NCI/ADR-RES ovarian = test system: NCI/ADR-RES ovarian
OVCAR-3 ovarian = test system: OVCAR-3 ovarian
OVCAR-4 ovarian = test system: OVCAR-4 ovarian
OVCAR-5 ovarian = test system: OVCAR-5 ovarian
OVCAR-8 ovarian = test system: OVCAR-8 ovarian
PC-3 prostate = test system: PC-3 prostate
RPMI-8226 leukemia = test system: RPMI-8226 leukemia
RXF 393 renal = test system: RXF 393 renal
SF-268 CNS = test system: SF-268 CNS
SF-295 CNS = test system: SF-295 CNS
SF-539 CNS = test system: SF-539 CNS
SK-MEL-2 melanoma = test system: SK-MEL-2 melanoma
SK-MEL-28 melanoma = test system: SK-MEL-28 melanoma
SK-MEL-5 melanoma = test system: SK-MEL-5 melanoma
SK-OV-3 ovarian = test system: SK-OV-3 ovarian
SN12C renal = test system: SN12C renal
SNB-19 CNS = test system: SNB-19 CNS
SNB-75 CNS = test system: SNB-75 CNS
SR leukemia = test system: SR leukemia
SW-620 colon = test system: SW-620 colon
T-47D breast = test system: T-47D breast
TK-10 renal = test system: TK-10 renal
U251 CNS = test system: U251 CNS
UACC-257 melanoma = test system: UACC-257 melanoma
UACC-62 melanoma = test system: UACC-62 melanoma
UO-31 renal = test system: UO-31 renal

## COc1ccc(C2/C(=C(\O)c3ccccc3)C(=O)C(O)(CC(=O)c3ccccc3)N2c2ccc(OC)cc2)cc1 (configuration not stated)
786-0 renal
  TGI: 46.7 µM
A498 renal
  TGI: > 100 µM
A549 NSCLC
  TGI: > 100 µM
ACHN renal
  TGI: 68.8 µM
BT-549 breast
  TGI: > 56.8 µM
CAKI-1 renal
  TGI: > 75.8 µM
CCRF-CEM leukemia
  TGI: 14.5 µM
COLO 205 colon
  TGI: 38.8 µM
DU-145 prostate
  TGI: > 100 µM
EKVX NSCLC
  TGI: > 100 µM
HCC-2998 colon
  TGI: > 47.7 µM
HCT-116 colon
  TGI: 39.8 µM
HCT-15 colon
  TGI: 37.2 µM
HL-60(TB) leukemia
  TGI: 28.7 µM
HOP-62 NSCLC
  TGI: > 100 µM
HOP-92 NSCLC
  TGI: 32.5 µM
HS 578T breast
  TGI: > 100 µM
HT29 colon
  TGI: > 100 µM
IGROV1 ovarian
  TGI: > 77.7 µM
K-562 leukemia
  TGI: 58.8 µM
KM12 colon
  TGI: 36.9 µM
LOX IMVI melanoma
  TGI: 39.2 µM
M14 melanoma
  TGI: 99.6 µM
MALME-3M melanoma
  TGI: 75.7 µM
MCF7 breast
  TGI: > 88.5 µM
MDA-MB-231 breast
  TGI: 50.9 µM
MDA-MB-435
  TGI: 47.7 µM
MDA-N
  TGI: 82.5 µM
MOLT-4 leukemia
  TGI: 54 µM
NCI-H226 lung
  TGI: 66.3 µM
NCI-H23 lung
  TGI: > 100 µM
NCI-H460 lung
  TGI: > 84.8 µM
NCI-H522 lung
  TGI: 20.5 µM
NCI/ADR-RES ovarian
  TGI: 54.7 µM
OVCAR-3 ovarian
  TGI: 26.2 µM
OVCAR-4 ovarian
  TGI: > 100 µM
OVCAR-5 ovarian
  TGI: > 100 µM
OVCAR-8 ovarian
  TGI: > 100 µM
PC-3 prostate
  TGI: > 81.6 µM
RPMI-8226 leukemia
  TGI: 14.8 µM
RXF 393 renal
  TGI: > 85.1 µM
SF-268 CNS
  TGI: > 100 µM
SF-295 CNS
  TGI: > 100 µM
SF-539 CNS
  TGI: 59.3 µM
SK-MEL-2 melanoma
  TGI: 41.4 µM
SK-MEL-28 melanoma
  TGI: > 86.4 µM
SK-MEL-5 melanoma
  TGI: 29.2 µM
SK-OV-3 ovarian
  TGI: 99.3 µM
SN12C renal
  TGI: 85.5 µM
SNB-19 CNS
  TGI: > 100 µM
SNB-75 CNS
  TGI: > 100 µM
SR leukemia
  TGI: 14.3 µM
SW-620 colon
  TGI: > 56.6 µM
T-47D breast
  TGI: 98 µM
TK-10 renal
  TGI: > 100 µM
U251 CNS
  TGI: > 64.3 µM
UACC-257 melanoma
  TGI: 31.9 µM
UACC-62 melanoma
  TGI: > 100 µM
UO-31 renal
  TGI: 32.6 µM

## CCOC(=O)NC(Nc1ccc(OC(F)(F)F)cc1)(C(F)(F)F)C(F)(F)F
786-0 renal
  TGI: > 100 µM
A498 renal
  TGI: > 100 µM
A549 NSCLC
  TGI: > 100 µM
ACHN renal
  TGI: > 100 µM
BT-549 breast
  TGI: > 100 µM
CAKI-1 renal
  TGI: > 100 µM
CCRF-CEM leukemia
  TGI: > 100 µM
COLO 205 colon
  TGI: > 100 µM
DU-145 prostate
  TGI: > 100 µM
EKVX NSCLC
  TGI: > 100 µM
HCC-2998 colon
  TGI: > 100 µM
HCT-116 colon
  TGI: > 100 µM
HCT-15 colon
  TGI: > 100 µM
HL-60(TB) leukemia
  TGI: > 100 µM
HOP-62 NSCLC
  TGI: > 100 µM
HOP-92 NSCLC
  TGI: > 100 µM
HS 578T breast
  TGI: > 100 µM
HT29 colon
  TGI: > 100 µM
IGROV1 ovarian
  TGI: > 100 µM
K-562 leukemia
  TGI: > 100 µM
KM12 colon
  TGI: > 100 µM
LOX IMVI melanoma
  TGI: > 100 µM
M14 melanoma
  TGI: > 100 µM
MALME-3M melanoma
  TGI: > 100 µM
MCF7 breast
  TGI: > 100 µM
MDA-MB-231 breast
  TGI: > 100 µM
MDA-MB-435
  TGI: > 100 µM
MDA-N
  TGI: > 100 µM
MOLT-4 leukemia
  TGI: > 100 µM
NCI-H226 lung
  TGI: > 100 µM
NCI-H23 lung
  TGI: > 100 µM
NCI-H460 lung
  TGI: > 100 µM
NCI-H522 lung
  TGI: > 100 µM
NCI/ADR-RES ovarian
  TGI: > 100 µM
OVCAR-3 ovarian
  TGI: > 100 µM
OVCAR-5 ovarian
  TGI: > 100 µM
OVCAR-8 ovarian
  TGI: > 100 µM
PC-3 prostate
  TGI: > 100 µM
RPMI-8226 leukemia
  TGI: > 100 µM
RXF 393 renal
  TGI: > 100 µM
SF-268 CNS
  TGI: > 100 µM
SF-295 CNS
  TGI: > 100 µM
SF-539 CNS
  TGI: > 100 µM
SK-MEL-2 melanoma
  TGI: > 100 µM
SK-MEL-28 melanoma
  TGI: > 100 µM
SK-MEL-5 melanoma
  TGI: > 100 µM
SK-OV-3 ovarian
  TGI: > 100 µM
SN12C renal
  TGI: > 100 µM
SNB-19 CNS
  TGI: > 100 µM
SNB-75 CNS
  TGI: > 100 µM
SR leukemia
  TGI: > 100 µM
SW-620 colon
  TGI: > 100 µM
T-47D breast
  TGI: > 100 µM
TK-10 renal
  TGI: > 100 µM
U251 CNS
  TGI: > 100 µM
UACC-257 melanoma
  TGI: > 100 µM
UACC-62 melanoma
  TGI: > 100 µM
UO-31 renal
  TGI: > 100 µM
